According to the OPERA property sets (Mansouri et al. 2018):

SMILES | logP
[N-]=[N+]=N[C@H]1C[C@H](n2cnc3c(N)ncnc32)O[C@@H]1CO | 0.35
O=c1[nH]c(=O)n([C@H]2CC[C@@H](CO)O2)cc1Cl | -1.11
[N-]=[N+]=N[C@H]1C[C@H](n2cnc3c(N)nc(N)nc32)O[C@@H]1CO | 0.24
Nc1nc(N)c2ncn(C3CC(O)C(CO)O3)c2n1 (stereo not given) | -0.52
O=c1[nH]c(=O)n([C@H]2CC[C@@H](CO)O2)cc1I | -0.61
Nc1nc(=O)c2ncn([C@H]3C[C@H](F)[C@@H](CO)O3)c2[nH]1 | -0.66
Nc1nc(=O)c2ncn([C@H]3CC[C@@H](CO)O3)c2[nH]1 | -1.01
[N-]=[N+]=NC1C(CO)OC(n2cnc3c(N)ncnc32)C1N=[N+]=[N-] (stereo not given) | 0.8
O=c1[nH]c(=O)n(C2CCC(CO)O2)cc1Br (stereo not given) | -0.99
Nc1ncnc2c1ncn2[C@H]1C[C@H](F)[C@@H](CO)O1 | 0.08
Nc1nc(=O)c2ncn([C@H]3C=C[C@@H](CO)O3)c2[nH]1 | -1.21
Nc1nc(N)c2ncn(C3CC(F)C(CO)O3)c2n1 (stereo not given) | 0.05

More lines, now with the values ahead:

logP | SMILES
-1.51 | O=c1ccn(C2CC(O)C(CO)O2)c(=O)[nH]1 (stereo not given)
-0.49 | O=c1ccn(C2CC(F)C(CO)O2)c(=O)[nH]1 (stereo not given)
-0.04 | O=c1[nH]c(=O)n(C2CC(F)C(CO)O2)cc1Br (stereo not given)
0.21 | O=c1[nH]c(=O)n(C2CC(F)C(CO)O2)cc1I (stereo not given)
-1.07 | O=c1ccn([C@H]2C=C[C@@H](CO)O2)c(=O)[nH]1
-0.17 | O=c1[nH]c(=O)n([C@H]2C[C@H](F)[C@@H](CO)O2)cc1Cl
-0.32 | [N-]=[N+]=NC1CC(n2ccc(=O)[nH]c2=O)OC1CO (stereo not given)
-0.28 | Cc1cn([C@H]2C[C@H](F)[C@@H](CO)O2)c(=O)[nH]c1=O
